Assay results as given in PubChem BioAssay (NCI).
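Where inhibition never reached the appropriate level, the endpoint shown equals the highest concentration tested. Otherwise, values were interpolated linearly from a five-concentration, 48-hour dose response in 96-well plates. TGI marks complete inhibition of growth.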

Key:
Test in all cases: inhibition of tumour cell growth, NCI panel, 48 h
[1] = system: EKVX NSCLC
[2] = system: ACHN renal
[3] = system: SNB-19 CNS
[4] = system: IGROV1 ovarian
[5] = system: SF-295 CNS
[6] = system: SNB-78 CNS
[7] = system: M19-MEL melanoma
[8] = system: HT29 colon
[9] = system: A549 NSCLC
[10] = system: SW-620 colon
[11] = system: RPMI-8226 leukemia
[12] = system: NCI-H23 lung
[13] = system: COLO 205 colon
[14] = system: K-562 leukemia
[15] = system: SK-OV-3 ovarian
[16] = system: CCRF-CEM leukemia
[17] = system: LXFL 529 NSCLC
[18] = system: MALME-3M melanoma
[19] = system: RXF 393 renal
[20] = system: OVCAR-8 ovarian
[21] = system: 786-0 renal
[22] = system: UACC-257 melanoma
[23] = system: DMS 114 small cell lung
[24] = system: HCT-15 colon
[25] = system: U251 CNS
[26] = system: SNB-75 CNS
[27] = system: M14 melanoma
[28] = system: DLD-1 colon
[29] = system: UO-31 renal
[30] = system: SN12C renal
[31] = system: HOP-18 NSCLC
[32] = system: MOLT-4 leukemia
[33] = system: NCI-H226 lung
[34] = system: DMS 273 small cell lung
[35] = system: KM20L2 colon
[36] = system: SR leukemia
[37] = system: HL-60(TB) leukemia
[38] = system: SF-268 CNS
[39] = system: OVCAR-4 ovarian
[40] = system: SK-MEL-28 melanoma
[41] = system: UACC-62 melanoma
[42] = system: HOP-92 NSCLC
[43] = system: SF-539 CNS
[44] = system: NCI-H522 lung
[45] = system: HCT-116 colon
[46] = system: A498 renal
[47] = system: HOP-62 NSCLC
[48] = system: HCC-2998 colon
[49] = system: SK-MEL-5 melanoma

Measured: TGI

C=CCOC(C)n1c(C)cc(=O)n(C(C)OCC=C)c1=O (centres undefined)
> 100 µM: all assays above
